# Reference: US10967078B2, “Radiolabelled mGluR2 PET ligands” (Janssen Pharmaceutica NV, priority 2014, dated 2021)
# How the values were obtained:
# mGlu3 = mGlu3 (Homo sapiens, UniProt Q14832); test: Selectivity for mGluR2 versus mGluR3; assay type: biochemical
# mGlu4 = mGlu4 (Homo sapiens, UniProt Q14833); test: Selectivity for mGluR2 versus mGluR4; assay type: biochemical
# mGlu8 = mGlu8 (Homo sapiens, UniProt O00222); test: Selectivity for mGluR2 versus mGluR8; assay type: biochemical
# [1] = Biodistribution studies in normal female Wistar rats; assay type: in vivo, rat; details: for % ID blood / SUV blood / % ID bone / SUV bone / % ID carcass / % ID cerebellum / SUV cerebellum / SUV cerebrum + cerebellum / % ID cerebrum total / % ID cortex / SUV cortex / % ID heart / % ID hippocampus / SUV hippocampus / % ID intestines / % ID kidneys / % ID liver / % ID lungs / % ID muscle / SUV muscle / % ID rest of cerebrum / SUV rest of cerebrum / % ID spleen + pancreas / % ID stomach / % ID striatum / SUV striatum / % ID urine / SUV whole cerebrum: mean n=3; for SUV cerebrum + cerebellum / Total brain uptake: cerebrum + cerebellum; for Total brain uptake: n=3
# Procedure: High-performance liquid chromatography (HPLC) analysis was performed on a LaChrom Elite® HPLC system (Hitachi, Armstadt, Germany) connected to a UV spectrometer. For the analysis of radiolabeled compounds, the HPLC eluate, after passage through the UV detector, was led over a shielded 3-inch NaI(Tl) scintillation detector connected to a single channel analyser (Gabi box, Raytest, Straubenhardt, Germany). The output signal was recorded and analysed using a GINA Star data acquisition system (Raytest, Straubenhardt, Germany). Radioactivity in samples of biodistribution studies was quantified using an automated gamma counter equipped with a 3-inch NaI(Tl) well crystal coupled to a multichannel analyser (Wallac 2480 Wizard, Wallac, Turku, Finland). Results were corrected for background radiation, physical decay and counter dead time. Animals were housed in individually ventilated cages in a thermoregulated (˜22° C.), humidity-controlled facility under a 12 h/12 h light/dark cycle with access to food and water ad libitum. All animal experiments were conducted according to the Belgian code of practice for the care and use of animals, after approval from the local University Ethics Committee for Animals.
# Biodistribution studies of [^11C]-2 and [^11C]-1 were carried out in healthy female Wister rats (body weight 185-220 g) at 2 min, 30 min and 60 min post injection (p.i.) (n=3/time point). Rats were injected with about 18 MBq of the tracer via a tail vein under anesthesia (2.5% isoflurane in O2 at 1 L/min flow rate) and sacrificed by decapitation at the above specified time points. Blood and major organs were collected in tared tubes and weighed. The radioactivity in blood, organs and other body parts was measured using an automated gamma counter. For calculation of total blood radioactivity, blood mass was assumed to be 7% of the body mass. For calculation of total muscle and total bone radioactivity, muscle and bone mass were assumed to be 40% and 12% of the body mass, respectively.
# mGluR2 [2] = target: T1, mGluR2 (Mus musculus, UniProt Q14BI2); test: In vitro autoradiography binding on mGluR2 KO and WT mouse brain sections
# T1 construct: horizontal sections of mGluR2 KO and WT mouse brain and of normal female Wistar rat brain; from tissue; host or cells: mouse brain sections (WT and mGluR2 KO), 20 µm
# Procedure: (§1) In vitro autoradiography studies were performed on horizontal sections of mGluR2 KO and WT mouse brain and of normal female Wistar rat brain (20 μm). The sections were preincubated in 50 mM Tris-HCl (MgCl2 2 mM, CaCl2 2 mM; pH 7.0) for 10 min (two times) at room temperature and dried. Next, the brain sections were incubated with tracer [^11C]-2, [^11C]-5, [^11C]-4, [^11C]-1 or [^18F]-3 diluted in the same Tris-HCl buffer as used for the preincubation additionally containing 0.1% BSA or with this tracer solution in the presence of 10 μM Co. No. 2 or Co. No. 1. The mouse brain sections were incubated with 17 kBq of carbon-11 labeled tracer and 1.7 kBq of fluorine-18 labeled tracer. For the rat brain sections this was 44 kBq of carbon-11 labeled tracer and 0.44 kBq of fluorine-18 labeled tracer. After 30 min of incubation, the brain sections were washed three times for 5 min in ice-cold Tris-HCl 50 mM ((MgCl2 2 mM, CaCl2 2 mM; pH 7.0+0.1% BSA buffer). After a quick dip in purified ice-cold water, the slides were dried. Autoradiograms were obtained by exposing the slides overnight to a high-performance phosphor storage screen (super-resolution screen; Perkin Elmer, Waltham, USA). The screens were read using a Cyclone Plus system (Perkin Elmer) and analysed using Optiquant software (Perkin Elmer). The radioactivity concentration in the autoradiograms was expressed in digital light units (DLU)/mm^2.
# (§2) To obtain additional information on the specificity of the tracer binding to mGluR2, in vitro autoradiography binding studies were performed on mGluR2 KO and WT mouse brain sections and on normal rat brain sections in presence or absence of a high concentration of mGluR2 NAM compounds (Co. No. 1 or Co. No. 2).
# mGluR2 [3] = target: T2, mGluR2 (Rattus norvegicus, UniProt P31421); test: In vitro autoradiography binding on normal female Wistar rat brain sections; details: in words
# T2 construct: horizontal sections of mGluR2 KO and WT mouse brain and of normal female Wistar rat brain; from tissue; host or cells: normal female Wistar rat brain sections, 20 µm
# Procedure: as §1, §2
# [4] = WT mouse cortex, block with 10 μM Co. No. 1
# [5] = WT mouse striatum, block with 10 μM Co. No. 1
# T1 sequence (Q14BI2 19-872): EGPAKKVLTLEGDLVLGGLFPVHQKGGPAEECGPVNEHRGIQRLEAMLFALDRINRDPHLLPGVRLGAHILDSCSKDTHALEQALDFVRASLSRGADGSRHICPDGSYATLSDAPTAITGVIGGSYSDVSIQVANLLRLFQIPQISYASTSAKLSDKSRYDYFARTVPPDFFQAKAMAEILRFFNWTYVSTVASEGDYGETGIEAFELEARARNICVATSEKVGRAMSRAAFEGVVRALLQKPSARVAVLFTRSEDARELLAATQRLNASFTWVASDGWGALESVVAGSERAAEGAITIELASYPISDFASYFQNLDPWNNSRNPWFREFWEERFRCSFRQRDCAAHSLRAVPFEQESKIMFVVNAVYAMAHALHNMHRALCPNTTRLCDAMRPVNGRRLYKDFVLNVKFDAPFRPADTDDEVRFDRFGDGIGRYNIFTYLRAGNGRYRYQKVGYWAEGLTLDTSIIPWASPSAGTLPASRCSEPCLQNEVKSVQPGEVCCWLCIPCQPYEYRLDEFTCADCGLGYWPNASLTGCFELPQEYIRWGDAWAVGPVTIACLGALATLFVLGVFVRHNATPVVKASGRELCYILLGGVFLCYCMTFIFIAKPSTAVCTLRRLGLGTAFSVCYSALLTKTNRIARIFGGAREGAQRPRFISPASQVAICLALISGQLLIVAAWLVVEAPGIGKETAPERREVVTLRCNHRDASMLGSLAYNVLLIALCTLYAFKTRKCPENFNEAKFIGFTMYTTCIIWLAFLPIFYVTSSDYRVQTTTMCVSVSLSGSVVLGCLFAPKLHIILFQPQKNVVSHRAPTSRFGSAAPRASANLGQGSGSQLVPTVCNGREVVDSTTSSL
# Chain of mGlu3 (Q14832 23-879): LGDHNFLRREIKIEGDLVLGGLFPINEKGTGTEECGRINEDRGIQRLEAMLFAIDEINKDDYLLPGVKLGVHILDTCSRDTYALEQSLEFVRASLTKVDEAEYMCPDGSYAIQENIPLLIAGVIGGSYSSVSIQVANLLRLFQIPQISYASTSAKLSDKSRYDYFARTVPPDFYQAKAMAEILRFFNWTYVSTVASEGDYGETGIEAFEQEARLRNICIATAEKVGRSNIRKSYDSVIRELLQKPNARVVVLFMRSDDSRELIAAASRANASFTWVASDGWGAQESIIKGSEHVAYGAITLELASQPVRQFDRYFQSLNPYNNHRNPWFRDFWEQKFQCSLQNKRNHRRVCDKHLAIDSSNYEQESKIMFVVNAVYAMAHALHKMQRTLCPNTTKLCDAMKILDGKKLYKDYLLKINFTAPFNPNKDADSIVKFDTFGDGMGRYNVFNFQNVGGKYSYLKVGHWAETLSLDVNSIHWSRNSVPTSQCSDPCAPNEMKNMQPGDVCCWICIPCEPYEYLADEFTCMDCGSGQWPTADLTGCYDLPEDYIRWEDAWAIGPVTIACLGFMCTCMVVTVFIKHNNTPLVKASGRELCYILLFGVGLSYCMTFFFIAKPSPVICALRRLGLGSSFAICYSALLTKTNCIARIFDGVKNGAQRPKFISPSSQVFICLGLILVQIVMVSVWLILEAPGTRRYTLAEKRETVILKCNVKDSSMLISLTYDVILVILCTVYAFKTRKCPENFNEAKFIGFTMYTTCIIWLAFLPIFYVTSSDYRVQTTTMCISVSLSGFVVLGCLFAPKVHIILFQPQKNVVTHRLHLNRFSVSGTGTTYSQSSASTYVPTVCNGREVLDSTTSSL
# T2 sequence (P31421 19-872): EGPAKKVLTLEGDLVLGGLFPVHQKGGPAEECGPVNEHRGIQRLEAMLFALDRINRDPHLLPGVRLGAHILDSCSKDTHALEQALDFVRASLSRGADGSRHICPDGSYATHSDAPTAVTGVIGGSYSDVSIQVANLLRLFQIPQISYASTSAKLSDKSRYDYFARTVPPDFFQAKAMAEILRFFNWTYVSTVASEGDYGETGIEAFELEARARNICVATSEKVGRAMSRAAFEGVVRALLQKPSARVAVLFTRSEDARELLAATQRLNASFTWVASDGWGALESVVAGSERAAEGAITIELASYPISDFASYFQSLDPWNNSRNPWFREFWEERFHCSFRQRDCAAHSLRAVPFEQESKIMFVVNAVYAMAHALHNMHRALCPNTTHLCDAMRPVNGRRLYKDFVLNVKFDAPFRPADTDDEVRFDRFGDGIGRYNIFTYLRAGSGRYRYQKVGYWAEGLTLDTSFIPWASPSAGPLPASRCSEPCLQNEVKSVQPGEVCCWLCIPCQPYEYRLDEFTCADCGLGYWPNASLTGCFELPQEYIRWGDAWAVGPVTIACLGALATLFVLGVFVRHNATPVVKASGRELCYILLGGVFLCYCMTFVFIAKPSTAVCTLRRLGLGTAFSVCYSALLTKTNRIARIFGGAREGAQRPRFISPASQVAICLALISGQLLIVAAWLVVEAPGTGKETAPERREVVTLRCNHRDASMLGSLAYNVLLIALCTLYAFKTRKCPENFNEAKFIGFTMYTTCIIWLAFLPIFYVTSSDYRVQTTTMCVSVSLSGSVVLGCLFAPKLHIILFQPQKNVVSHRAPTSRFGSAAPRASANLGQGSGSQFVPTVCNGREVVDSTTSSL
# Chain of mGlu8 (O00222 34-908): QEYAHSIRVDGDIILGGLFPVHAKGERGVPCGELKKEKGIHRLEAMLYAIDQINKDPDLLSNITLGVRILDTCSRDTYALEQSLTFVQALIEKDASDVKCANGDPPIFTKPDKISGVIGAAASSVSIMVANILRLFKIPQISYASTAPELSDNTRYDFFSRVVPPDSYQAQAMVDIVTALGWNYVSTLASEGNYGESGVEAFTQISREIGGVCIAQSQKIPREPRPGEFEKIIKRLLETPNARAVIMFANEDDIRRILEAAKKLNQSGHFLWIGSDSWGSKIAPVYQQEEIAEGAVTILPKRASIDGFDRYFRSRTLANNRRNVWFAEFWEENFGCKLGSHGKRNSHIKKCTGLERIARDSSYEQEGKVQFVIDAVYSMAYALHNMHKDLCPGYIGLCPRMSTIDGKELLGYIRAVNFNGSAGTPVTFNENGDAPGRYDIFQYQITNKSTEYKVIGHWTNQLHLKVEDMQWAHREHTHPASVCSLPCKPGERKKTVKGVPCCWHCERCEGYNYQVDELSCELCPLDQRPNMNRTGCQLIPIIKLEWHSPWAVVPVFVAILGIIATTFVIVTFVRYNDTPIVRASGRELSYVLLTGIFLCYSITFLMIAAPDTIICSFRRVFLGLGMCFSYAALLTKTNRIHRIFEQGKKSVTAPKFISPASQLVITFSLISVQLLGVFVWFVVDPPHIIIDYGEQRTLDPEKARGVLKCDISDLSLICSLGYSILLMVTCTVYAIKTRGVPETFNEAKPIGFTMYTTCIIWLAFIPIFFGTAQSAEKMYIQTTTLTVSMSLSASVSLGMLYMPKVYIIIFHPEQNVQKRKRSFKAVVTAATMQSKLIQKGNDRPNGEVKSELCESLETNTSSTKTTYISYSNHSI
# Chain of mGlu4 (Q14833 33-912): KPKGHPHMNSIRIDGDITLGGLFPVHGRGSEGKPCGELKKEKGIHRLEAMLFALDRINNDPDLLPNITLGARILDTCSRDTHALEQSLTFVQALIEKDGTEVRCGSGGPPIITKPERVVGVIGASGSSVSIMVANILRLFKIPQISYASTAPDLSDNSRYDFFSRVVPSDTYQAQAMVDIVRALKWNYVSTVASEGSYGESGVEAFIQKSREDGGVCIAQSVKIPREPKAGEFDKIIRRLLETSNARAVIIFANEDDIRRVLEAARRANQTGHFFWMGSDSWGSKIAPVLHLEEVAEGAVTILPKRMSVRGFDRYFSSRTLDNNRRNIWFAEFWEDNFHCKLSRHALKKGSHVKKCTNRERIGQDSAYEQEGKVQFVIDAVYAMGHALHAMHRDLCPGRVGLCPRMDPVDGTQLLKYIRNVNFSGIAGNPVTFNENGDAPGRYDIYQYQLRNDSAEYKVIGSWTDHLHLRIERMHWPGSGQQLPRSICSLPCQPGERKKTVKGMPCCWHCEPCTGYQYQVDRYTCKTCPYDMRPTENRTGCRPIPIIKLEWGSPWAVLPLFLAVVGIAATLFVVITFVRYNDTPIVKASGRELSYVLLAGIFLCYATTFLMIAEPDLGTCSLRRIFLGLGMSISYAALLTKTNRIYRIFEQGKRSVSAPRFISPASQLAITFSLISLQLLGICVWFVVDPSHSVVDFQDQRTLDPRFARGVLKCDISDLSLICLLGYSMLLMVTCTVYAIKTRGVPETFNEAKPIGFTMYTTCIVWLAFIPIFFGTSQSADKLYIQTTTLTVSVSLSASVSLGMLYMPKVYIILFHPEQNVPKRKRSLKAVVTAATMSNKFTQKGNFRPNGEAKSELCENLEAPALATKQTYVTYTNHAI
smiles,measurement,setting,value
"CNc1cc(-c2cnn3c2C(=O)N(c2ccc(C(F)(F)F)cc2)C[C@@H]3C)ccn1 [Co. No. 2, (7S)-7-Methyl-3-[2-(methylamino)-4-pyridyl]-5-[4-(trifluoromethyl)phenyl]-6,7-dihydropyrazolo[1,5-a]pyrazin-4-one]",Selectivity over mGlu3,mGlu3,44.7
same,Selectivity over mGlu4,mGlu4,8709.6
same,Selectivity over mGlu8,mGlu8,1737.8
"CNc1cc(-c2cnn3c2C(=O)N(c2ccc(C(F)(F)F)c(OC)n2)C[C@@H]3C)ccn1 [Co. No. 5, (7S)-5-[6-Methoxy-5-(trifluoromethyl)-2-pyridyl]-7-methyl-3-[2-(methylamino)-4-pyridyl]-6,7-dihydropyrazolo[1,5-a]pyrazin-4-one]",Selectivity over mGlu3,mGlu3,234.4
same,melting point,,125.82 °C
C[C@H]1CN(c2ccc(C(F)(F)F)cc2)C(=O)c2c(-c3ccnc([11CH3])c3)cnn21 [[^11C]-1],2 min - to- 30 min wash-out ratio,[1]; blood,1.86
same,% ID blood,"[1]; blood, 2 min p.i.",6.3 % ID
same,SUV blood,"[1]; blood, 2 min p.i.",0.90 SUV
same,% ID blood,"[1]; blood, 30 min p.i.",3.4 % ID
same,SUV blood,"[1]; blood, 30 min p.i.",0.49 SUV
same,2 min - to- 30 min wash-out ratio,[1]; bone,2.11
same,% ID bone,"[1]; bone, 2 min p.i.",5.7 % ID
same,SUV bone,"[1]; bone, 2 min p.i.",0.48 SUV
same,% ID bone,"[1]; bone, 30 min p.i.",2.7 % ID
same,SUV bone,"[1]; bone, 30 min p.i.",0.23 SUV
same,% ID carcass,[1]; 2 min p.i.,43.4 % ID
same,% ID carcass,[1]; 30 min p.i.,61.5 % ID
same,2 min - to- 30 min wash-out ratio,[1]; cerebellum,2.90
same,% ID cerebellum,"[1]; cerebellum, 2 min p.i.",0.340 % ID
same,SUV cerebellum,"[1]; cerebellum, 2 min p.i.",2.60 SUV
same,% ID cerebellum,"[1]; cerebellum, 30 min p.i.",0.120 % ID
same,SUV cerebellum,"[1]; cerebellum, 30 min p.i.",0.90 SUV
same,SUV cerebrum + cerebellum,[1]; 2 min p.i.,2.82 SUV
same,Total brain uptake,[1]; 2 min p.i.,2.0 % ID
same,Total brain uptake,"[1]; 2 min p.i., listed as [^11C-1]",2.01 ± 0.24 % ID
same,SUV cerebrum + cerebellum,[1]; 30 min p.i.,0.95 SUV
same,Total brain uptake,[1]; 30 min p.i.,0.69 ± 0.05 % ID
same,% ID cerebrum total,[1]; 2 min p.i.,1.643 % ID
same,% ID cerebrum total,[1]; 30 min p.i.,0.567 % ID
same,2 min - to- 30 min wash-out ratio,[1]; cortex,3.22
same,% ID cortex,"[1]; cortex, 2 min p.i.",0.131 % ID
same,SUV cortex,"[1]; cortex, 2 min p.i.",3.51 SUV
same,% ID cortex,"[1]; cortex, 30 min p.i.",0.039 % ID
same,SUV cortex,"[1]; cortex, 30 min p.i.",1.09 SUV
same,% ID heart,[1]; 2 min p.i.,0.6 % ID
same,% ID heart,[1]; 30 min p.i.,0.5 % ID
same,2 min - to- 30 min wash-out ratio,[1]; hippocampus,2.76
same,% ID hippocampus,"[1]; hippocampus, 2 min p.i.",0.083 % ID
same,SUV hippocampus,"[1]; hippocampus, 2 min p.i.",2.41 SUV
same,% ID hippocampus,"[1]; hippocampus, 30 min p.i.",0.031 % ID
same,SUV hippocampus,"[1]; hippocampus, 30 min p.i.",0.87 SUV
same,% ID intestines,[1]; 2 min p.i.,10.1 % ID
same,% ID intestines,[1]; 30 min p.i.,11.1 % ID
same,% ID kidneys,[1]; 2 min p.i.,2.9 % ID
same,% ID kidneys,[1]; 30 min p.i.,1.6 % ID
same,% ID liver,[1]; 2 min p.i.,31.2 % ID
same,% ID liver,[1]; 30 min p.i.,14.2 % ID
same,% ID lungs,[1]; 2 min p.i.,2.1 % ID
same,% ID lungs,[1]; 30 min p.i.,0.9 % ID
same,2 min - to- 30 min wash-out ratio,[1]; muscle,0.61
same,% ID muscle,"[1]; muscle, 2 min p.i.",15.1 % ID
same,SUV muscle,"[1]; muscle, 2 min p.i.",0.38 SUV
same,% ID muscle,"[1]; muscle, 30 min p.i.",24.9 % ID
same,SUV muscle,"[1]; muscle, 30 min p.i.",0.62 SUV
same,2 min - to- 30 min wash-out ratio,[1]; rest of cerebrum,3.00
same,% ID rest of cerebrum,"[1]; rest of cerebrum, 2 min p.i.",1.286 % ID
same,SUV rest of cerebrum,"[1]; rest of cerebrum, 2 min p.i.",2.83 SUV
same,% ID rest of cerebrum,"[1]; rest of cerebrum, 30 min p.i.",0.445 % ID
same,SUV rest of cerebrum,"[1]; rest of cerebrum, 30 min p.i.",0.94 SUV
same,% ID spleen + pancreas,[1]; 2 min p.i.,1.9 % ID
same,% ID spleen + pancreas,[1]; 30 min p.i.,1.2 % ID
same,% ID stomach,[1]; 2 min p.i.,2.8 % ID
same,% ID stomach,[1]; 30 min p.i.,6.4 % ID
same,2 min - to- 30 min wash-out ratio,[1]; striatum,2.68
same,% ID striatum,"[1]; striatum, 2 min p.i.",0.143 % ID
same,SUV striatum,"[1]; striatum, 2 min p.i.",2.58 SUV
same,% ID striatum,"[1]; striatum, 30 min p.i.",0.052 % ID
same,SUV striatum,"[1]; striatum, 30 min p.i.",0.97 SUV
same,% ID urine,[1]; 2 min p.i.,0.1 % ID
same,% ID urine,[1]; 30 min p.i.,0.1 % ID
same,2 min - to- 30 min wash-out ratio,[1]; whole cerebrum,2.98
same,SUV whole cerebrum,"[1]; whole cerebrum, 2 min p.i.",2.83 SUV
same,SUV whole cerebrum,"[1]; whole cerebrum, 30 min p.i.",0.95 SUV
same,Cortex WT (TB)/cortex WT (block Co. No. 1),mGluR2 [2]; [4],~21.5
same,"spec binding, cortex WT",mGluR2 [2]; [4],(~95% spec
same,Striatum WT (TB)/striatum WT (block Co. No. 1),mGluR2 [2]; [5],~11.8
same,"spec binding, striatum WT",mGluR2 [2]; [5],(~92% specific
same,difference in tracer binding to WT and mGluR2 KO mouse brain sections,mGluR2 [2]; in words,significant difference
same,Cortex WT (TB)/Cortex KO (TB),"mGluR2 [2]; total binding ratio, WT versus mGluR2 KO mouse brain sections, cortex",~7.1
same,Striatum WT (TB)/Striatum KO (TB),"mGluR2 [2]; total binding ratio, WT versus mGluR2 KO mouse brain sections, striatum",~3.8
same,total binding to normal rat brain sections,mGluR2 [3],less pronounced
